Results taken from PMC3950631, “L-Phenylalanine Transport in Saccharomyces cerevisiae: Participation of GAP1, BAP2, and AGP1” (Journal of Amino Acids, 2014).
Like-named read-outs stand apart in the source and are kept apart here.

Experiments:
Experiment in all cases: inhibition of […] L-[…]-phenylalanine uptake into intact yeast cells
Assay type in all cases: cell-based
Gap1p = molecular target: T1, Gap1p (Saccharomyces cerevisiae, UniProt P19145)
T1 construct: gene GAP1; native chromosomal permease in intact yeast cells, full length, plasma membrane; assigned by gene disruption and growth medium
T1 sequence (P19145 1-602): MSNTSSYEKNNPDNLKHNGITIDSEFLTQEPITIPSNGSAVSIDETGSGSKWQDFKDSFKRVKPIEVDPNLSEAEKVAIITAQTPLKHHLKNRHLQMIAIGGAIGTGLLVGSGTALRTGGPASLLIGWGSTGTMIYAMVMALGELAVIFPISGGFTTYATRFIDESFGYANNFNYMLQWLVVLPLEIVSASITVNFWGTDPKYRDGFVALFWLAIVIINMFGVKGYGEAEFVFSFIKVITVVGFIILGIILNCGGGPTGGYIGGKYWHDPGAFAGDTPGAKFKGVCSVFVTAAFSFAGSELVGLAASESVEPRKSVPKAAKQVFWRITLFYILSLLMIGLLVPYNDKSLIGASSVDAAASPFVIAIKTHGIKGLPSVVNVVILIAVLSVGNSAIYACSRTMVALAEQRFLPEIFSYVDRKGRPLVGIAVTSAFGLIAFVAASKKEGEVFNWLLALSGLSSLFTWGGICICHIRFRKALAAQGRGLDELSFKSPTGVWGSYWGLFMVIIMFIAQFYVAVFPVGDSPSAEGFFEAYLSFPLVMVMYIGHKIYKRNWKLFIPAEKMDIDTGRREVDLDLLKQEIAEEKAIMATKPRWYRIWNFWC

Bap2p = molecular target: T2, Bap2p (Saccharomyces cerevisiae, UniProt P38084); conditions: read-out: Percentage inhibition / Y294Δagp1
T2 construct: gene BAP2; native chromosomal permease in intact yeast cells, full length, plasma membrane; assigned by gene disruption
T2 sequence (P38084 1-609): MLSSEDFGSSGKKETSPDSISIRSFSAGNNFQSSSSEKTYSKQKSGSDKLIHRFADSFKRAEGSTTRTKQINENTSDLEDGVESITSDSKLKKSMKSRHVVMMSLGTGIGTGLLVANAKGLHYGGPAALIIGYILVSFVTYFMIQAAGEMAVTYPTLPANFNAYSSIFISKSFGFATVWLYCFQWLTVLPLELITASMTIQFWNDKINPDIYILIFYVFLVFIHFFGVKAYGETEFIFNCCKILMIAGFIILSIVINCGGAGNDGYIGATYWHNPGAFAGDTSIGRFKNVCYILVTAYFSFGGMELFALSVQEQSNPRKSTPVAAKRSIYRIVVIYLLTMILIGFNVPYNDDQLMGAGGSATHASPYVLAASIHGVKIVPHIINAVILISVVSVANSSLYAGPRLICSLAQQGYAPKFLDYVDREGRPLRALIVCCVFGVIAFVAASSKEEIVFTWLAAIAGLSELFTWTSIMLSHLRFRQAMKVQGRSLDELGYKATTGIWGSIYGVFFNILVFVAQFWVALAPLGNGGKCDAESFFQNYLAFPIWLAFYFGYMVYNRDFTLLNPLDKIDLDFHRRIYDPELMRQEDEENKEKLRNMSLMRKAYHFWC

Agp1p = molecular target: T3, Agp1p (Saccharomyces cerevisiae, UniProt P25376)
T3 construct: gene AGP1; native chromosomal permease in intact yeast cells, full length, plasma membrane; assigned by gene disruption
T3 sequence (P25376 1-633): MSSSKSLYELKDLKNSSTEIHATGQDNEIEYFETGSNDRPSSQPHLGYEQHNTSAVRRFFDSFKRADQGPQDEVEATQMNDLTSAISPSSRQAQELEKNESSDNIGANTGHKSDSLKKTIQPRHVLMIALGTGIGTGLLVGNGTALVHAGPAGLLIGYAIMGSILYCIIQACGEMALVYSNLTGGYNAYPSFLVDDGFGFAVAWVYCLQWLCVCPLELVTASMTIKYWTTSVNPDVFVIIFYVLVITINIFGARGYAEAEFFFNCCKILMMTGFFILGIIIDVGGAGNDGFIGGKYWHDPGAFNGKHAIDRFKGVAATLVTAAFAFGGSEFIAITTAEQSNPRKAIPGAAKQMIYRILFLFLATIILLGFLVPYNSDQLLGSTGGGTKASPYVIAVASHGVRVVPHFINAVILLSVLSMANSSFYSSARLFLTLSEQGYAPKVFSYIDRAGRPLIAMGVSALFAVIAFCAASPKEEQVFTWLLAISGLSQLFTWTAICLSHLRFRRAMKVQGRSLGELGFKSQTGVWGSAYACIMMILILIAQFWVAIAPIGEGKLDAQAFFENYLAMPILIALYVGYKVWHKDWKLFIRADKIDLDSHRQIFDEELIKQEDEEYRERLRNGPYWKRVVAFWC

[1] = read-out: Percentage inhibition / Y294Δbap2
[2] = read-out: Percentage inhibition / Y294Δbap2Δgap1 / MP

| inhibition at 200 µM (Gap1p; [1]) [%] | inhibition at 200 µM (Bap2p) [%] | Compound | further results |
| --- | --- | --- | --- |
| 75 | 72 | CC(C)C[C@H](N)C(=O)O [Leucine] | inhibition at 200 µM (Agp1p; [2]): 34% |
| 71 | – | CC(C)[C@H](N)C(=O)O [Valine] | – |
| 37 | – | NC(=O)C[C@H](N)C(=O)O [Asparagine] | inhibition at 200 µM (Agp1p; [2]): 48% |
| 42 | 48 | CC(CC(N)C(=O)O)C(F)(F)F (racemic) [DL-trifluoroleucine] | – |

The remaining lines, values behind:

| Compound | inhibition at 200 µM (Gap1p; [1]) [%] | inhibition at 200 µM (Bap2p) [%] | further results |
| --- | --- | --- | --- |
| NC(=O)NCCC[C@H](N)C(=O)O [Citrulline] | 40 | – | – |
| NC(Cc1cccs1)C(=O)O (racemic) [β-2-thienylalanine] | – | 67 | – |
| CC[C@H](C)[C@H](N)C(=O)O [Isoleucine] | – | – | inhibition at 200 µM (Gap1p; read-out: Percentage inhibition / Y294): 71% |
| N[C@@H](Cc1ccc(O)cc1)C(=O)O [Tyrosine] | 81 | – | – |
| N[C@@H](Cc1c[nH]c2ccccc12)C(=O)O [Tryptophan] | 86 | – | inhibition at 200 µM (Agp1p; read-out: Percentage inhibition / Y294Δgap1 / MA): 18% |
